The record followed here is patent US6376543B1, “Secondary cataract inhibitor” (Kissei Pharmaceuticals Co., Ltd., priority 1996, dated 2002).

In this assay the test system is rat lens epithelial cells. Briefly: Inhibitory activity on lens epithelial cell proliferation. It counts as cell-based. To be noted: rat lens epithelial cells cultured 4 days in DMEM with 10% FBS and various concentrations of Tranilast; viable cells counted by hemocytometer; FIG. 1. As for the experimental part:
Inhibitory Activity on Lens Epithelial Cell Proliferation
(1) Culture of Rat Lens Epithelial Cells
Rat crystalline lens was harvested and cut into narrow strips. The strips were adhered to a culture plate and subcultured in Dulbecco's modified Eagle's Medium (DMEM) containing 10% fetal calf serum (FBS) at 37° C. in an atmosphere of 5% CO2 in air for 4 days. On day 4 (at the point that lens epithelial cells had migrated and profilated from crystalline lens tissues), the medium was aspirated and cells were gently washed with phosphate-buffered saline (PBS(−)). Then, the PBS(−) was aspirated, an aliquot of 0.25% trypsin solution containing 0.02% EDTA was added to the culture plate, and the morphology of the cells was observed under phase-contrast microscopy. When cells were going to be round, an equal value of DMEM containing 10% FBS was added to the trypsin solution to stop the action of trypsin. […]
Cell suspension (2×10^4 cells/0.1 ml) and DMEM medium (1.9 ml) containing various concentration of Tranilast and 10% FBS were added to a culture plate (60 mm), and cultured at 37° C. in an atmosphere of 5% CO2 in air. […] After harvesting cells from the plate by pipetting using a pasture pipette, the number of viable cells was counted using a hemocytometer. […]
Mean and standard variation values of each group were calculated. […]

As to `COc1ccc(C=CC(=O)Nc2ccccc2C(=O)O)cc1OC` [Tranilast, N-(3,4-dimethoxycinnamoyl)anthranilic acid], the “proliferation of lens epithelial cells (number of viable cells)” value is reported as “significantly suppressed the proliferation of lens epithelial cells in a concentration-dependent manner”.
